Experimental data taken from US20120040987A1, “DERIVATIVES OF 6-(6-NH-SUBSTITUTED-TRIAZOLOPYRIDAZINE-SULFANYL) BENZOTHIAZOLES AND BENZIMIDAZOLES, PREPARATION THEREOF, USE THEREOF AS DRUGS, AND USE THEREOF AS MET INHIBITORS” (SANOFI, priority 2009, published 2012).

Experiments:
[1] = system: HCT116 cells and MKN45 cells; experiment: Test C: measurement of cell proliferation by 14C-thymidine pulse; type: cell-based; details: 14C-thymidine incorporation, 96 h of treatment; cell line not given
Description: The cells are seeded into Cytostar 96-well plates in 180 μl for 4 hours at 37° C. and 5% CO2: HCT116 cells at a rate of 2500 cells per well in DMEM medium+10% foetal calf serum+1% L-glutamine and MKN45 cells at a rate of 7500 cells per well in RPMI medium+10% foetal calf serum+1% L-glutamine. After these 4 hours of incubation, the products are added in 10 μl as a 20-fold concentrated solution according to the dilution method mentioned for the ELISA. The products are tested at 10 concentrations in duplicate from 10 000 nM to 0.3 nM with an increment of 3.
After treatment for 72 h, add 10 μl of ^14C-thymidine at 10 μCi/ml to obtain 0.1 μCi per well. The ^14C-thymidine incorporation is measured on a Micro-Beta machine (Perkin-Elmer) after 24 hours of pulse and 96 h of treatment.
All the steps of the assay are automated on BIOMEK 2000 or TECAN stations.

MET [2] = biological target: T1, MET (Homo sapiens, UniProt P08581); experiment: Test B: inhibition of the autophosphorylation of MET, ELISA technique (pppY1230, 1234, 1235) on MKN45 cell lysates; type: cell-based; design: endogenous in cells; host or cells: MKN45 cells; details: MKN45 cells, 1 h treatment, phosphoMET ELISA
Description: a) Cell lysates: Seed MKN45 cells into 96-well plates (Cell coat BD polylysine) at 20 000 cells/well in 200 μl in RPMI medium+10% FCS+1% L-glutamine. Leave to adhere for 24 hours in an incubator.
The cells are treated the day after seeding with the products at 6 concentrations in duplicate for 1 h. At least 3 control wells are treated with the same final amount of DMSO.
Product dilution: Stock at 10 mM in pure DMSO—range from 10 mM to 30 μM with an increment of 3 in pure DMSO—intermediate 1/50 dilutions in culture medium and then removal of 10 μl added directly to the cells (200 μl): final range of 10 000 to 30 nM.
At the end of the incubation, carefully remove the supernatant and rinse with 200 μl of PBS. Next, place 100 μl of lysis buffer directly in the wells on ice and incubate at 4° C. for 30 minutes. Lysis buffer: 10 mM Tris HCl, pH7.4, 100 mM NaCl, 1 mM EDTA, 1 mM EGTA, 1% Triton X-100, 10% glycerol, 0.1% SDS, 0.5% deoxycholate, 20 mM NaF, 2 mM Na3VO4, 1 mM PMSF and cocktail of antiproteases.
The 100 μl of lysates are transferred into a V-bottomed polypropylene plate and the ELISA is performed immediately, or the plate is frozen at −80° C.
Into each well of the kit plate, add 70 μl of kit dilution buffer+30 μL of cell lysate or 30 μl of lysis buffer for the blanks. Incubate for 2 h with gentle agitation at ambient temperature.
Rinse the wells 4 times with 400 μl of kit washing buffer. Incubate with 100 μl of anti-phospho MET antibody for 1 hour at ambient temperature.
Rinse the wells 4 times with 400 μl of kit washing buffer. Incubate with 100 μl of anti-rabbit HRP antibody for 30 minutes at ambient temperature (except for the wells of chromogen alone).
Rinse the wells 4 times with 400 μl of kit washing buffer. Introduce 100 μL of chromogen and incubate for 30 minutes in the dark at ambient temperature.
Stop the reaction with 100 μl of stop solution. Read without delay at […], 0.1 second on Wallac Victor plate reader.
Target sequence in this assay (P08581 25-1390): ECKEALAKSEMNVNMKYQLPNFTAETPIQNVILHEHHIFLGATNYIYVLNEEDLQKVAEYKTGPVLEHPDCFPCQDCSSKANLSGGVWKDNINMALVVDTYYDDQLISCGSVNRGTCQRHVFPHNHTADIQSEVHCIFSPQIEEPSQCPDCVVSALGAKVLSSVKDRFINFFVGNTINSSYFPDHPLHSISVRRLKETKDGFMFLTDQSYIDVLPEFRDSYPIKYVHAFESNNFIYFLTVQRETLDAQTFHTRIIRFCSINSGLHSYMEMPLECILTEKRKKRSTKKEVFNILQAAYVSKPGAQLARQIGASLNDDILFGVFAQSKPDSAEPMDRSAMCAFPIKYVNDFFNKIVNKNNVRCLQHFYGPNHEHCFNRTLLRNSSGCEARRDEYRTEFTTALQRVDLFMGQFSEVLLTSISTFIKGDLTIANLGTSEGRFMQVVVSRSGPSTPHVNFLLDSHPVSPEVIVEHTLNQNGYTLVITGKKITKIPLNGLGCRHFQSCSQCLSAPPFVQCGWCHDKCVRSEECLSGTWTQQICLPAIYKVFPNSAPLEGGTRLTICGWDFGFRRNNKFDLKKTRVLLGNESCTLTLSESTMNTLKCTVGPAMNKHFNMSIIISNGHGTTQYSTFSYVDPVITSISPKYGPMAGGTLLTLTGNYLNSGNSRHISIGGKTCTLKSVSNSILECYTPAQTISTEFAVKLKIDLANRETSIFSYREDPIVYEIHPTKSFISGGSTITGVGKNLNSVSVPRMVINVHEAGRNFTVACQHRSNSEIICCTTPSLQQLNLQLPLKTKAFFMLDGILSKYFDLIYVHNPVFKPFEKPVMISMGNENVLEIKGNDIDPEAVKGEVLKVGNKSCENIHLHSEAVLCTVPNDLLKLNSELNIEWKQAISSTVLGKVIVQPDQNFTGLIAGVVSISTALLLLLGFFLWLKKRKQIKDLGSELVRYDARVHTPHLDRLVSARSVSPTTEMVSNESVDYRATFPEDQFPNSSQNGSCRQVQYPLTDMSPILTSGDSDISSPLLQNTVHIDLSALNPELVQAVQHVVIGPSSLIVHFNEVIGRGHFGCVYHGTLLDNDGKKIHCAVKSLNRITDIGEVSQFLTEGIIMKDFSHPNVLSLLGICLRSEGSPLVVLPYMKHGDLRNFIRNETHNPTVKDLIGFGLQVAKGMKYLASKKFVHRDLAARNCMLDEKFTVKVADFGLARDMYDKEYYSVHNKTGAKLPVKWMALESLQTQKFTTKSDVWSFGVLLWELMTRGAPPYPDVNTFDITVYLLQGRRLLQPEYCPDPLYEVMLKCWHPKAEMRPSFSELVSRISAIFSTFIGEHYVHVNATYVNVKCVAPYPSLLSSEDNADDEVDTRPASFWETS

MET [3] = biological target: T1, MET; experiment: Test A: HTRF MET assay in 96-well format; type: biochemical; design: The His-Tev-MET (956-1390) recombinant DNA in pFastBac (Invitrogen) is transfected into insect cells; His tag (N, cleaved yes); Tev cleavage site (N, cleaved yes); made in house; host or cells: SF21 insect cells (baculovirus, pFastBac); details: MET 5 nM, 10 μM ATP
Description: The His-Tev-MET (956-1390) recombinant DNA in pFastBac (Invitrogen) is transfected into insect cells, and after several viral amplification steps, the final baculovirus stock is tested for the expression of the protein of interest.
After infection for 72 h at 27° C. with the recombinant virus, the SF21 cell cultures are harvested by centrifugation and the cell pellets are stored at −80° C.
The cell pellets are resuspended in lysis buffer (buffer A [50 mM HEPES, pH 7.5, 250 mM NaCl, 10% glycerol, 1 mM TECP]; +cocktail of protease inhibitors, Roche Diagnostics, without EDTA, ref 1873580), stirred at 4° C. until the mixture is homogeneous and then lyzed mechanically using a “Dounce” type apparatus.
After centrifugation, the lysis supernatant is incubated for 2 h at 4° C. with nickel chelate resin (His-Trap 6 Fast Flow™, GE HealthCare). After washing with 20 volumes of buffer A, the suspension is packed into a column, and the proteins are eluted with a gradient of buffer B ([…]+290 mM imidazole).
The fractions containing the protein of interest for the purpose of electrophoretic analysis (SDS PAGE) are combined, concentrated by ultrafiltration (10 kDa cut-off) and injected onto an exclusion chromatography column (Superdex™ 200, GE HealthCare) equilibrated in buffer A.
After enzymatic cleavage of the histidine tag, the protein is reinjected onto a new IMAC nickel chelate chromatography column (His-Trap 6 Fast Flow™, GE HealthCare) equilibrated in buffer A. The fractions eluted with a gradient of buffer B and containing the protein of interest after electrophoresis (SDS PAGE) are finally combined and conserved at −80° C.
For the production of autophosphorylated protein, the previous fractions are incubated for 1 h at ambient temperature after the addition of 2 mM ATP, 2 mM MgCl2, and 4 mM Na3VO4. After the reaction has been stopped with 5 mM of EDTA, the reaction mixture is injected onto a HiPrep desalifying column (GE HealthCare) preequilibrated in buffer A+4 mM Na3VO4, and the fractions containing the protein of interest (SDS PAGE analysis) are combined and stored at −80° C. The degree of phosphorylation is verified by mass spectrometry (LC-MS) and by peptide mapping.
MET at a final concentration of 5 nM is incubated in a final volume of 50 μl of enzymatic reaction in the presence of the test molecule (for a final concentration range of from 0.17 nM to 10 μM, 3% DMSO final concentration) in 10 mM MOPS buffer, pH 7.4, 1 mM DTT, 0.01% Tween 20. The reaction is initiated with the substrate solution to obtain final concentrations of 1 μg/ml poly-(GAT), 10 μM ATP and 5 mM MgCl2. After incubation for 10 min at ambient temperature, the reaction is stopped with a 30 μl mix so as to obtain a final solution of 50 mM Hepes pH 7.5, 500 mM potassium fluoride, 0.1% BSA and 133 mM EDTA in the presence of 80 ng of streptavidin 61SAXLB Cis-Bio Int. and 18 ng of anti-phosphotyrosine Mab PT66-Europium Cryptate per well. After incubation for 2 hours at ambient temperature, the reading is taken at 2 wavelengths, 620 nm and 665 nm, on a reader for the TRACE/HTRF technique and the % inhibition is calculated from the 665/620 ratios.
Target sequence in this assay (P08581 956-1390): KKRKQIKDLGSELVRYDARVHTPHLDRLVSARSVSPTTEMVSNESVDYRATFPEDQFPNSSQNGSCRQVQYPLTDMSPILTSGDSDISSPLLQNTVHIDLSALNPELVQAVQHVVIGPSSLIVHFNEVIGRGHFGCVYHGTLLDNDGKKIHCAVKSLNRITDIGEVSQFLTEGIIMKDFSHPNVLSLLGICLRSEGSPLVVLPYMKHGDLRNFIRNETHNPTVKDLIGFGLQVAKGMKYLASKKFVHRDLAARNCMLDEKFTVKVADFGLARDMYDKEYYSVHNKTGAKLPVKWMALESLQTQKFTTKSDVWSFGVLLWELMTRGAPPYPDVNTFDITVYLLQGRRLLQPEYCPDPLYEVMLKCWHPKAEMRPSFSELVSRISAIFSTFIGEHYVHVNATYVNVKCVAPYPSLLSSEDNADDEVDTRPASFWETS

SMILES | IC50 [1] | IC50 (MET [2]) | IC50 (MET [3])
O=C(NCCN1CCOCC1)Nc1nc2ccc(Sc3nnc4ccc(NC5CCOCC5)nn34)cc2s1 [Example 4, 1-[2-(Morpholin-4-yl)ethyl]-3-(6-{[6-(tetrahydro-2H-pyran-4-ylamino)-[1,2,4]triazolo[4,3-b]pyridazin-3-yl]sulphanyl}-1,3-benzothiazol-2-yl)urea] | < 1000 nM | < 100 nM | < 100 nM
CN(C)CC(=O)Nc1nc2ccc(Sc3nnc4ccc(NC5CCOCC5)nn34)cc2s1 [Example 6, N^2,N^2-dimethyl-N-(6-{[6-(tetrahydro-2H-pyran-4-ylamino)[1,2,4]triazolo-[4,3-b]pyridazin-3-yl]sulphanyl}-1,3-benzothiazol-2-yl)glycinamide] | < 1000 nM | < 100 nM | < 100 nM
COCCC(=O)Nc1nc2ccc(Sc3nnc4ccc(NC5CCOCC5)nn34)cc2s1 [Example 5, 3-Methoxy-N-(6-{[6-(tetrahydro-2H-pyran-4-ylamino)[1,2,4]triazolo-[4,3-b]pyridazin-3-yl]sulphanyl}-1,3-benzothiazol-2-yl)propanamide] | < 1000 nM | < 100 nM | < 100 nM

Continued, values first:

IC50 [1] | IC50 (MET [2]) | IC50 (MET [3]) | SMILES
< 1000 nM | < 100 nM | < 100 nM | CC(=O)Nc1nc2ccc(Sc3nnc4ccc(NC5CCOCC5)nn34)cc2s1 [Example 2, N-(6-{[6-(Tetrahydro-2H-pyran-4-ylamino)[1,2,4]triazolo[4,3-b]pyridazin-3-yl]sulphanyl}-1,3-benzothiazol-2-yl)acetamide]
< 1000 nM | < 100 nM | < 100 nM | O=C(Nc1nc2ccc(Sc3nnc4ccc(NC5CCOCC5)nn34)cc2s1)C1CC1 [Example 3, N-(6-{[6-(Tetrahydro-2H-pyran-4-ylamino)[1,2,4]triazolo[4,3-b]pyridazin-3-yl]sulphanyl}-1,3-benzothiazol-2-yl)cyclopropanecarboxamide]
< 1000 nM |  | < 100 nM | Nc1nc2ccc(Sc3nnc4ccc(NC5CCOCC5)nn34)cc2s1 [Example 1, 3-[(2-Amino-1,3-benzothiazol-6-yl)sulphanyl]-N-(tetrahydro-2H-pyran-4-yl)[1,2,4]triazolo[4,3-b]pyridazin-6-amine]
